{
  "source": "patent US20250222116A1",
  "about": "“PARP-1 DEGRADATION AGENT AND USE THEREOF” (XIZANG HAISCO PHARMACEUTICAL CO., LTD., priority 2021, published 2025)",
  "key": {"PARP7": {"molecular_target": "PARP7 (Homo sapiens (Human), UniProt Q7Z3E1)", "sequence (Q7Z3E1 whole entry)": "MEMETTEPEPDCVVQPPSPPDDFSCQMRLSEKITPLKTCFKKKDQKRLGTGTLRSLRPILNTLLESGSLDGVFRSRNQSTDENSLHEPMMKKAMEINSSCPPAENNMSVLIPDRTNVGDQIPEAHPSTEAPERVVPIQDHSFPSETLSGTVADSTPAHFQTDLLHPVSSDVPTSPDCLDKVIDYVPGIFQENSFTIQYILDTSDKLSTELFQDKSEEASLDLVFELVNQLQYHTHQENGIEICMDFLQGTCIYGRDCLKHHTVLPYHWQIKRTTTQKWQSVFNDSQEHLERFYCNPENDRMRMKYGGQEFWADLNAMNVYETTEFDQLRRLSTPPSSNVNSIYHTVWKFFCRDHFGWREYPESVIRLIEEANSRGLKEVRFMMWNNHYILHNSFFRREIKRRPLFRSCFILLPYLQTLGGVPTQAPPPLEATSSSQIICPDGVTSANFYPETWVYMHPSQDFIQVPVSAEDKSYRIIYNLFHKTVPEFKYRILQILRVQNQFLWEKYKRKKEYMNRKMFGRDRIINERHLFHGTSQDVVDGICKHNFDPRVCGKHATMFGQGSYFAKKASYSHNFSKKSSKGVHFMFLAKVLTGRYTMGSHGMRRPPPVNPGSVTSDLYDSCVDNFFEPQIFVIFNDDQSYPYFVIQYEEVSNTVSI", "assay": "PARP7 enzyme activity inhibition (chemiluminescence kit)", "format": "biochemical", "method": "PARP1, PARP2 and PARP7 chemical […] detection kits were all purchased from BPS Bioscience. The histone solution in the kit was diluted 5× with 1×PBS, and 25 μL of the diluted histone solution was added to a microwell plate and incubated overnight at 4° C. After the incubation was completed, the plate was washed three times with PBST (0.05% Tween-20). 25 μL of a blocking solution was added to the microwell plate and incubated at 25° C. for 90 minutes. After the incubation was completed, the plate was washed three times with PBST. 2.5 μL of compounds at different concentrations diluted in test buffer and 5 μL of 2.5× substrate mixed solution were added to the microwell plate. PARP1, PARP2 and PARP7 enzymes were diluted to 0.33, 0.23 and 5.00 ng/μL, respectively, 5 μL of the diluent was added to the microwell plate, and the reaction system was incubated at 25° C. for 60 minutes. After the incubation was completed, the plate was washed three times with PBST. […] ELISA ECL substrate A and substrate B were mixed at a ratio of 1:1 (v/v), 25 μL of the mixture was added to the microwell plate, and the chemiluminescence value was read using a BMG microplate reader.\nCurve fitting was performed by four parameters (log(inhibitor) vs. response−Variable slope) using GraphPad Prism software, and the IC50 value was calculated."}, "[1]": {"assay": "Pharmacokinetic test in mice", "format": "in vivo, ICR mice", "method": "8.1 Experimental animals: male ICR mice, 20 to 25 g, 18 mice/compound, purchased from Chengdu Ddossy Experimental Animals Co., Ltd.\n8.2 Experimental design: on the day of the experiment, 36 ICR mice were randomly grouped according to their body weights. The animals were fasted with water available for 12 to 14 h one day before the administration, and were fed 4 h after the administration.\nBefore and after the administration, 0.06 mL of blood was taken from the orbit of the animals under isoflurane anesthesia and placed in an EDTAK2 centrifuge tube. The blood was centrifuged at 5000 rpm and 4° C. for 10 min to collect plasma. The blood collection time points for the intravenous group and intragastric administration group were: 0 min, 5 min, 15 min, 30 min, 1 h, 2 h, 4 h, 6 h, 8 h, and 24 h. Before analysis and detection, all samples were stored at −80° C. The samples were analyzed quantitatively by LC-MS/MS."}, "PARP2": {"molecular_target": "PARP2 (Homo sapiens (Human), UniProt Q9UGN5)", "sequence (Q9UGN5 whole entry)": "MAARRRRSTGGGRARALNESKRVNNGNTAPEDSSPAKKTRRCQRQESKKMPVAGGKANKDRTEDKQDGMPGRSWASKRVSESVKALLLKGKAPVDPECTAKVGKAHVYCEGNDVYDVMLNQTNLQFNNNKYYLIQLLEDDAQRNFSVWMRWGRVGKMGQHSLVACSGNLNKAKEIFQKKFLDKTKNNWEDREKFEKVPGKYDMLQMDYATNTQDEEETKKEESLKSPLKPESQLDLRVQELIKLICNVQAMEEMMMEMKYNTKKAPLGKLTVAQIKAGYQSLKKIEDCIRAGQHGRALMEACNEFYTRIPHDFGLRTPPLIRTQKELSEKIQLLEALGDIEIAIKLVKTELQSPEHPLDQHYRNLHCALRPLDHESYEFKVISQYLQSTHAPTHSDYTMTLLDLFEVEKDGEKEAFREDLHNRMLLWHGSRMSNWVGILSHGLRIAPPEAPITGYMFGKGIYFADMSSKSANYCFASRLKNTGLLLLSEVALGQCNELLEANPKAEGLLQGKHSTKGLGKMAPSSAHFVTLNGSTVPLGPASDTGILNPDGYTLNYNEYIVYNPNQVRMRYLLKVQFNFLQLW", "assay": "PARP2 protein expression level in MDA-MB-436 cells", "format": "cell-based", "method": "MDA-MB-436 cells were placed in a complete L-15 medium (supplemented with 15% FBS; 10 μg/mL Insulin; 16 μg/mL Glutathione and 1% penicillin-streptomycin solution), and cultured at 37° C. under CO2-free conditions. The cells in the logarithmic growth phase were collected, the cell density was adjusted to 2×10^5 cells/well with the culture medium, and the cells were added to a 6-well cell culture plate at a volume of 1 mL/well and cultured overnight. On day 2, the compound to be tested was prepared to 2-fold the final concentration, 1 mL of the compounds at different concentrations were added to administration wells, a medium containing 0.2% DMSO was added to control wells, and the plate was incubated for 24 hours at 37° C. […] The supernatant was collected and the protein content was determined using the BCA method. The protein sample to be tested was diluted to 2 mg/mL, PARP2 was detected using a fully automated protein expression quantitative analyzer (ProteinSimple), and the internal reference protein was 3-actin (both antibodies were from CST). The software (Compass for SW) of the fully automated protein expression quantitative analyzer was used to process the raw data and calculate the peak area and the PARP2 expression rate relative to the control group. DC50 values were calculated using a four-parameter non-linear fitting model in Graphpad 8.3.0 software."}, "[2]": {"details": "male, ICR, mouse, iv, i.v. 2.5 mg/kg, plasma"}},
  "data": [
    {"compound": "CCc1cc2ncc(CN3CCN(c4ccc(C(=O)NC5CCN(c6ccc7c(c6)C(=O)N(C6CCC(=O)NC6=O)C7=O)CC5)nc4)CC3)cc2[nH]c1=O", "note": "(stereo not drawn) [Compound 10, N-(1-(2-(2,6-dioxopiperidin-3-yl)-1,3-dioxoisoindolin-5-yl)piperidin-4-yl)-5-(4-((7-ethyl-6-oxo-5,6-dihydro-1,5-naphthyridin-3-yl)methyl)piperazin-1-yl)picolinamide]", "values": [
      {"measurement": "IC50", "setting": "PARP7", "result": 91, "unit": "nM"},
      {"measurement": "pharmacokinetic characteristics", "setting": "[1]", "result": "good pharmacokinetic characteristics"},
      {"measurement": "F", "setting": "[1]; i.g. 10 mg/kg", "result": 84.6, "unit": "%"},
      {"measurement": "AUC(0-t)", "setting": "[1]; [2]", "result": 20600, "unit": "ng·h/mL"},
      {"measurement": "clearance", "setting": "[1]; [2]", "result": 2.02, "unit": "mL/min/kg"},
      {"measurement": "Vd", "setting": "[1]; male, ICR, mouse, iv, i.v. 2.5 mg/kg, plasma, read-out: Vdss", "result": 0.358, "unit": "L/kg"},
      {"measurement": "AUC(0-t)", "setting": "[1]; male, ICR, mouse, po, i.g. 10 mg/kg, plasma", "result": 69800, "unit": "ng·h/mL"},
      {"measurement": "PARP1 degradation selectivity over PARP2", "setting": "PARP2", "result": "good PARP1 degradation selectivity"},
      {"measurement": "DC50", "setting": "PARP2; 24 hours", "result": "> 10000", "unit": "nM"}
    ]}
  ]
}
